Measurements taken from US7173062B2, “Method for the improvement of skin wrinkles using retinyl retinoate” (Enprani Co., Ltd., priority 2001, dated 2007).

Key:
RXR α, β, γ = test: Activity for RXR (CAT reporter in HaCaT cells); format: cell-based; conditions: 1 μM, CAT ELISA
Experimental: (§1) The effect of the retinol derivatives on the activity of RAR and RXR was examined as follows.
(§2) Experimental procedure: Recombinant gene of DR5-tk-CAT or DR1-tk-CAT comprising DR1 or DR5 as a response element of RAR/RXR, […] promoter, and CAT (chloramphenicol acetyl transferase) was suitably combined with a plasmid DNA that expresses RAR α, β, γ and cotransfected to HaCaT cell line, a skin cancer cell line, with Lipofectamin (GibcoBRL). Then, the cells were incubated in DMEM/10% FBS medium for 1 day, retinol derivative was added in a concentration of 1 μM, and the cells were incubated again for 1 day under the condition of 5% CO2 and 37° C. The cells were washed with phosphate-buffered salione (PBS). Proteins were extracted from each cell, the activity of β-galactosidase was assayed, and the amount of protein was measured to determine the transfection efficiency. Further, the degree of transcription for RAR or RXR was analyzed by CAT ELISA (Roche Molecular Biochemicals, Mannheim, Germany).

[1] = Thermal stability test (quantitative HPLC); format: physicochemical; conditions: humidity 58%, in % (unit assumed)
Experimental: In order to compare thermal stability of the compound of formula (1) with retinol, phase stability for 1 month in a thermohygrostat (humidity: 58%) of room temperature, 40° C., and 4° C. was examined by a quantitative HPLC analysis under the following condition.
1) Column: Capcellpak UG 120 (5 μm, 4.6 mm*150 mm, shiseido, Japan)
3) Detector: UV(PDA 326 nm), • Fluorescence: Ex: 326nrm, Em: 460 nm

[2] = system: AP-1 (comprising c-Jun protein); test: Inhibition of activity of AP-1 protein (Coll-CAT collagenase promoter reporter in HaCaT cells); format: cell-based; conditions: for inhibition of the expression of collagenase: cells treated together with RAR α (c-Jun expressed)
Experimental: AP-1 (comprising c-Jun protein) is a transcription factor inducing the expression of collagenase that is a major cause of skin wrinkles. […] Therefore, studies thereabout were carried out in a similar manner to Experiment 6 as follows.
Experimental procedure: CAT reporter (Coll-CAT) having the collagenase promoter wherein AP-1 response element (TRE) is contained, was transfected into HaCaT cell line, a skin cancer cell line, using a liposome. Then, the degree of inhibition against the activity of AP-1 by retinol derivatives was measured through CAT ELISA in a similar manner to Experiment 6. Further, the effect of retinol derivatives on the transcriptional activity of c-Jun (a protein that induces transfer of cancer, skin aging and inflammation, and consists of homologous isomers or heterologous isomers), a constitutional element of AP-1, was examined by cotransfecting c-Jun or RAR α expression vector.

[3] = system: Normal human fibroblast (Newborn, passage: 6); test: Collagen synthesis test (Sircol collagen assay); format: cell-based; conditions: for increasing effect for collagen synthesis over control group treated only by DMEM: 2 days
Experimental: The effect for collagen synthesis of the compound of formula (1) was examined by using retinol, retinoic acid, and derivatives thereof as comparison compounds to confirm its utility as inhibitors for skin aging as follows. The results are represented in FIG. 2.
Cell: Normal human fibroblast (Newborn, passage: 6)
Medium: DMEM containing 10% FBS→DMEM free of FBS was used when cells were treated with samples.
Concentration: A range of concentration where the samples exert no toxicity to the cells was selected through a cell toxicity test ? 0.000001%, 0.00001%(w/v)
Procedure: 1×10^5 cells/well were inoculated into a 6-well plate. Cells were cultured to show about 79–80% confluent. Cells were treated with test samples and incubated for 2 days (FBS was not added to the medium when cells were treated with samples). After 2 days, cell medium and cells were separated from each other and respectively stored in a refrigerator. The cell extract was subjected to the protein analysis (BCA Protein Assay Kit, PIERCE 23225) and the medium was subjected to collagen analysis.
After the medium was removed, a small amount of PBS was added. Cells were scraped with a scraper. 1N NaOH (100 μl) and distilled water (400 μl) were added and the resulting mixture was allowed to stand overnight. Then, the protein analysis was carried out.
Collagen analysis: Analysis kit (Sircol Collagen assay kit—a dye that specifically combines with soluble collagen is used)
1.0 ml of Sircol Dye Reagent was introduced into each tube and mixed for 30 minutes. The mixture was centrifuged for 10 minutes at 5,000 g or more and the supernatant was removed. 1.0 ml Sircol Alkali Reagent was added, slowly mixed, and absorbance at 540 nm was measured. The amount of protein was converted into the value of collagen analysis (see: Mechanism of Aging and Development 73, 179–187, 1994).
After the above experiment, the increasing ratio for collagen synthesis of the test group over the control group treated only by DMEM was depicted in FIG. 2.

RAR α = molecular target: T1, RAR α (Homo sapiens, UniProt P10276); test: Activity for RAR α (CAT reporter in HaCaT cells); format: cell-based; conditions: 1 μM, CAT ELISA
T1 construct: expressed in transfected cells; host or cells: HaCaT
T1 sequence (P10276 1-462): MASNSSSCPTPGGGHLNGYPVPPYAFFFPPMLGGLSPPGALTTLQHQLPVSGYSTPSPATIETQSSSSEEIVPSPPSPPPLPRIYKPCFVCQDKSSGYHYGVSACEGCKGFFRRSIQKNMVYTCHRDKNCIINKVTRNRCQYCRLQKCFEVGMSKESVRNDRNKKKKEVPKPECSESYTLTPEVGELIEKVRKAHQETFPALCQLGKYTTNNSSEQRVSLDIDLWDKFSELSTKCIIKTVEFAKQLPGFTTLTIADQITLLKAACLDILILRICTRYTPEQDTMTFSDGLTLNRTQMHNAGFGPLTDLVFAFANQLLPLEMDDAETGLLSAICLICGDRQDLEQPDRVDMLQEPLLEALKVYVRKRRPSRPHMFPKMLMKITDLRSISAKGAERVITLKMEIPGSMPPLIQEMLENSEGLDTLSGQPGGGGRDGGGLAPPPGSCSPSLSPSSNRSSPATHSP
Experimental: as §1, §2

[4] = Condition of expression: c-Jun + RAR α, HaCaT, Coll-CAT, untreated = 8.6
[5] = Condition of expression: c-Jun, HaCaT, Coll-CAT, untreated = 8.6
[6] = Condition of expression: — (no c-Jun or RAR α vector), HaCaT, Coll-CAT, untreated = 1.0

**Q.** With `CC1=C(/C=C/C(C)=C/C=C/C(C)=C/COC(=O)/C=C(C)/C=C/C=C(C)/C=C/C2=C(C)CCCC2(C)C)C(C)(C)CCC1` [Compound of formula (1), Retinyl retinoate] as the molecule, how does the “Relative activity against RXR α, β, γ” value (RXR α, β, γ; Control = 1.0) read?
**A.** 1.0

**Q.** What about the “Thermal stability (amount by quantitative HPLC)” value (“Thermal stability” below) ([1]; After 1 week, 4° C.) of the same molecule?
**A.** 100

**Q.** And the “Thermal stability” value ([1]; After 1 week, 40° C.)?
**A.** 74.46

**Q.** And the “Thermal stability” value ([1]; After 1 week, r.t.)?
**A.** 92.77

**Q.** What about the “Thermal stability” value ([1]; After 2 weeks, 4° C.) of the same molecule?
**A.** 100

**Q.** What about the “Thermal stability” value ([1]; After 2 weeks, 40° C.) of the same molecule?
**A.** 70.25

**Q.** And the “Thermal stability” value ([1]; After 2 weeks, r.t.)?
**A.** 90.45

**Q.** What about the “Thermal stability” value ([1]; After 4 weeks, 4° C.) of the same molecule?
**A.** 99.65

**Q.** And the “Thermal stability” value ([1]; After 4 weeks, 40° C.)?
**A.** 68.23

**Q.** And the “Thermal stability” value ([1]; After 4 weeks, r.t.)?
**A.** 89.21

**Q.** And the “Thermal stability” value ([1]; Initial value, 4° C.)?
**A.** 100

**Q.** And the “Thermal stability” value ([1]; Initial value, 40° C.)?
**A.** 100

**Q.** What about the “Thermal stability” value ([1]; Initial value, r.t.) of the same molecule?
**A.** 100

**Q.** And the “Relative inhibition against the expression of collagenase” value (from here on “Relative inhibition”) [2, 4]?
**A.** 4.1

**Q.** And the “Relative inhibition” value [2, 5]?
**A.** 6.7

**Q.** And the “Relative inhibition” value [2, 6]?
**A.** 0.7

**Q.** And the “effect on / inhibitory activity against c-Jun (AP-1), in words” value ([2]; HaCaT, Coll-CAT, c-Jun / RAR α cotransfection)?
**A.** lower inhibitory activity against c-Jun than retinoic acid, but higher one than retinol

**Q.** And the “inhibition of the expression of collagenase” value [2]?
**A.** about 52%

**Q.** What about the “effect for collagen synthesis (FIG. 2), comparison in words” value ([3]; 0.000001%, 0.00001%(w/v), human fibroblast) of the same molecule?
**A.** superior effect for collagen synthesis at low concentration to retinol or retinoic acid

**Q.** What about the “collagen synthesis effect relative to retinol at the same concentration” value ([3]; 10^−6% (W/V)) of the same molecule?
**A.** about 10 times

**Q.** And the “increasing effect for collagen synthesis over control group treated only by DMEM” value ([3]; 10^−6% (W/V), human fibroblast)?
**A.** 41.29%

**Q.** And the “Relative activity against RAR α” value (RAR α; Control = 1.0)?
**A.** 22.5

**Q.** What about the “Relative activity against RAR α” value (RAR α; Control = 1.0, listed as compound of formula (1)) of the same molecule?
**A.** relatively specific and high activity

**Q.** With `CC1=C(/C=C/C(C)=C/C=C/C(C)=C/CO)C(C)(C)CCC1` [Retinol] as the molecule, how does the “Relative activity against RXR α, β, γ” value (RXR α, β, γ; Control = 1.0) read?
**A.** 1.0

**Q.** What about the “Relative activity against RXR α, β, γ” value (RXR α, β, γ; Control = 1.0, listed as retinol) of the same molecule?
**A.** no activity

**Q.** And the “Thermal stability” value ([1]; After 1 week, 4° C.)?
**A.** 100

**Q.** And the “Thermal stability” value ([1]; After 1 week, 40° C.)?
**A.** 56.08

**Q.** What about the “Thermal stability” value ([1]; After 1 week, r.t.) of the same molecule?
**A.** 74.27

**Q.** What about the “Thermal stability” value ([1]; After 2 weeks, 4° C.) of the same molecule?
**A.** 98.23

**Q.** What about the “Thermal stability” value ([1]; After 2 weeks, 40° C.) of the same molecule?
**A.** 43.26

**Q.** And the “Thermal stability” value ([1]; After 2 weeks, r.t.)?
**A.** 65.23

**Q.** And the “Thermal stability” value ([1]; After 4 weeks, 4° C.)?
**A.** 95.52

**Q.** And the “Thermal stability” value ([1]; After 4 weeks, 40° C.)?
**A.** 34.51

**Q.** And the “Thermal stability” value ([1]; After 4 weeks, r.t.)?
**A.** 52.23

**Q.** And the “Thermal stability” value ([1]; Initial value, 4° C.)?
**A.** 100

**Q.** What about the “Thermal stability” value ([1]; Initial value, 40° C.) of the same molecule?
**A.** 100

**Q.** What about the “Thermal stability” value ([1]; Initial value, r.t.) of the same molecule?
**A.** 100

**Q.** What about the “Relative inhibition” value [2, 4] of the same molecule?
**A.** 5.8

**Q.** And the “Relative inhibition” value [2, 5]?
**A.** 7.3

**Q.** What about the “Relative inhibition” value [2, 6] of the same molecule?
**A.** 0.8

**Q.** What about the “inhibition of the expression of collagenase” value [2] of the same molecule?
**A.** about 33%

**Q.** And the “increasing effect for collagen synthesis over control group treated only by DMEM” value ([3]; 10^−6% (W/V), human fibroblast)?
**A.** 4.94%

**Q.** What about the “Relative activity against RAR α” value (RAR α; Control = 1.0) of the same molecule?
**A.** 27.5
